Laboratory results taken from ChEMBL document CHEMBL1201862, “PubChem BioAssay data set” (2004).
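All cell lines were grown in 96-well plates and treated with compound for 48 hours. GI50 is the concentration that inhibits growth by half.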 Active and inactive are the calls of the source. No stated cut-off is given here; in the data, active = GI50 up to about 1.1 µM and inactive = higher.

Legend:
Assay in all cases: NCI-60 cell line screen, 48 h
SK-OV-3 = tested on: SK-OV-3
UACC-257 = tested on: UACC-257
COLO 205 = tested on: COLO 205
UACC-62 = tested on: UACC-62
NCI/ADR-RES = tested on: NCI/ADR-RES
Hs-578T = tested on: Hs-578T
SW-620 = tested on: SW-620
CAKI-1 = tested on: CAKI-1
CCRF-CEM = tested on: CCRF-CEM
KM12 = tested on: KM12
OVCAR-8 = tested on: OVCAR-8
TK-10 = tested on: TK-10
Malme-3M = tested on: Malme-3M
SK-MEL-5 = tested on: SK-MEL-5
U-251 = tested on: U-251
OVCAR-4 = tested on: OVCAR-4
M14 = tested on: M14
SK-MEL-28 = tested on: SK-MEL-28
UO-31 = tested on: UO-31
K562 = tested on: K562

SMILES	GI50 (SK-OV-3)	GI50 (UACC-257)	GI50 (COLO 205)	GI50 (UACC-62)	GI50 (NCI/ADR-RES)	GI50 (Hs-578T)	GI50 (SW-620)	GI50 (CAKI-1)	GI50 (CCRF-CEM)	GI50 (KM12)	GI50 (OVCAR-8)	GI50 (TK-10)	GI50 (Malme-3M)	GI50 (SK-MEL-5)	GI50 (U-251)	GI50 (OVCAR-4)	GI50 (M14)	GI50 (SK-MEL-28)	GI50 (UO-31)	GI50 (K562)
O=C(/C=C/c1ccc(O)c(O)c1)NC(CO)C(=O)O (stereo not given)	> 100 µM (inactive)	> 100 µM (inactive)	> 100 µM (inactive)	> 100 µM (inactive)	2.59 µM (inactive)	> 100 µM (inactive)	> 100 µM (inactive)	> 100 µM (inactive)	> 100 µM (inactive)	> 100 µM (inactive)	> 100 µM (inactive)	> 100 µM (inactive)	> 100 µM (inactive)	> 100 µM (inactive)	> 100 µM (inactive)	> 100 µM (inactive)	> 100 µM (inactive)	> 100 µM (inactive)	> 100 µM (inactive)	> 100 µM (inactive)
CCOC(=O)c1csc(C(CSCc2ccc(OC)cc2)N2C(=O)c3ccccc3C2=O)n1 (stereo not given)	> 100 µM (inactive)	> 100 µM (inactive)	> 100 µM (inactive)	63.5 µM (inactive)	> 100 µM (inactive)	> 100 µM (inactive)	50.2 µM (inactive)	> 100 µM (inactive)	35.9 µM (inactive)	> 100 µM (inactive)	> 100 µM (inactive)	> 100 µM (inactive)	> 100 µM (inactive)	> 100 µM (inactive)	> 100 µM (inactive)	> 100 µM (inactive)	> 100 µM (inactive)	> 100 µM (inactive)	> 100 µM (inactive)	33.9 µM (inactive)
CC(OC(C)(C)C)[C@H](NC(=O)OCc1ccccc1)C(=O)NC(OCc1ccccc1)[C@H]1COC(C)(C)O1 (stereo not given in full)	> 10 µM (inactive)	> 10 µM (inactive)	> 10 µM (inactive)	> 10 µM (inactive)	> 10 µM (inactive)	> 10 µM (inactive)	> 10 µM (inactive)	> 10 µM (inactive)	> 10 µM (inactive)	> 10 µM (inactive)	> 10 µM (inactive)	> 10 µM (inactive)	> 10 µM (inactive)	> 10 µM (inactive)	> 10 µM (inactive)	> 10 µM (inactive)	> 10 µM (inactive)	> 100 µM (inactive)	> 10 µM (inactive)	> 10 µM (inactive)
Nc1cccc2nsnc12	> 100 µM (inactive)	> 100 µM (inactive)	29.3 µM (inactive)	48.6 µM (inactive)	> 100 µM (inactive)	> 100 µM (inactive)	> 100 µM (inactive)	74.3 µM (inactive)	11.9 µM (inactive)	20.7 µM (inactive)	> 100 µM (inactive)	> 100 µM (inactive)	> 100 µM (inactive)	36.3 µM (inactive)	> 100 µM (inactive)	> 100 µM (inactive)	> 83.9 µM (inactive)	> 100 µM (inactive)	> 40.5 µM (inactive)	16.7 µM (inactive)
CCOC(=O)Oc1ccc2c(c1)c(=O)c1c(NCCCN(CC)CC)ccc3nnn2c31	11.3 µM (inactive)	15.4 µM (inactive)	11.7 µM (inactive)	15.3 µM (inactive)	7.76 µM (inactive)	20.5 µM (inactive)	2.24 µM (inactive)	0.53 µM (active)	0.889 µM (active)	0.982 µM (active)	3.48 µM (inactive)	2.79 µM (inactive)	13.4 µM (inactive)	10.2 µM (inactive)	10.4 µM (inactive)	0.33 µM (active)	12.3 µM (inactive)	18.6 µM (inactive)	0.598 µM (active)	5.13 µM (inactive)
Nc1nc(O)c2[nH]nnc2n1 [8-AZAGUANINE]	1.04 µM (active)	0.735 µM (active)	13.3 µM (inactive)	0.372 µM (active)	1.93 µM (inactive)	0.906 µM (active)	0.306 µM (active)	0.304 µM (active)	0.242 µM (active)	34.1 µM (inactive)	0.551 µM (active)	0.408 µM (active)	0.352 µM (active)	0.748 µM (active)	1.74 µM (inactive)	12.9 µM (inactive)	0.292 µM (active)	0.728 µM (active)	0.366 µM (active)	0.268 µM (active)
COc1ccc2c(c1)CCN1CCc3ccccc3CC21 (stereo not given)	64.6 µM (inactive)	29.7 µM (inactive)	19.4 µM (inactive)	32.3 µM (inactive)	42.9 µM (inactive)	72.6 µM (inactive)	45.3 µM (inactive)	47.2 µM (inactive)	33.3 µM (inactive)	37.2 µM (inactive)	63.5 µM (inactive)	35.7 µM (inactive)	43.1 µM (inactive)	15.1 µM (inactive)	34.7 µM (inactive)	> 100 µM (inactive)	18.2 µM (inactive)	27.6 µM (inactive)	11 µM (inactive)	29 µM (inactive)
C=CC(=O)N1C/C(=C\c2ccc(Cl)cc2)C(=O)/C(=C/c2ccc(Cl)cc2)C1	0.656 µM (active)	1.19 µM (inactive)	0.39 µM (active)	0.294 µM (active)	0.436 µM (active)	0.321 µM (active)	0.15 µM (active)	0.343 µM (active)	0.175 µM (active)	0.234 µM (active)	0.322 µM (active)	1.39 µM (inactive)	0.973 µM (active)	1.36 µM (inactive)	0.173 µM (active)	0.286 µM (active)	0.255 µM (active)	0.442 µM (active)	0.335 µM (active)	0.265 µM (active)
CNNC1=NS(=O)(=O)c2cc(C#N)c(Cl)cc2S1	> 10 µM (inactive)	> 10 µM (inactive)	> 10 µM (inactive)	> 10 µM (inactive)	> 10 µM (inactive)	> 10 µM (inactive)	> 10 µM (inactive)	> 10 µM (inactive)	> 10 µM (inactive)	> 10 µM (inactive)	> 10 µM (inactive)	> 10 µM (inactive)	> 10 µM (inactive)	> 10 µM (inactive)	> 10 µM (inactive)	> 10 µM (inactive)	> 10 µM (inactive)	> 10 µM (inactive)	1.68 µM (inactive)	> 10 µM (inactive)
COc1ccc(S(=O)(=O)N2C(=O)CCC2C(=O)NN)cc1 (stereo not given)	> 100 µM (inactive)	> 100 µM (inactive)	> 100 µM (inactive)	> 100 µM (inactive)	> 100 µM (inactive)	61.8 µM (inactive)	> 100 µM (inactive)	> 100 µM (inactive)	> 100 µM (inactive)	> 100 µM (inactive)	> 100 µM (inactive)	> 100 µM (inactive)	> 100 µM (inactive)	> 100 µM (inactive)	> 100 µM (inactive)	> 100 µM (inactive)	> 100 µM (inactive)	> 100 µM (inactive)	> 100 µM (inactive)	> 100 µM (inactive)
